Reference: the kinase profiling compilation of Christmann-Franck et al. (2016)

Legend:
Experiment in all cases: KINOMEscan competition binding
Settings in all cases: compound 2.0 µM
BMP2K (human) = BMP2K (human) (UniProt Q9NSY1)
ERN1 (human) = ERN1 (human) (UniProt O75460)
IGF1R (human) = IGF1R (human) (UniProt P08069)
FLT3 (human) = FLT3 (human) (UniProt P36888)
MUSK (human) = MUSK (human) (UniProt O15146)
HIPK3 (human) = HIPK3 (human) (UniProt Q9H422)
TTK (human) = TTK (human) (UniProt P33981)
MAP3K2 (human) = MAP3K2 (human) (UniProt Q9Y2U5)
Sequence of MAP3K2 (human) (Q9Y2U5 whole entry, looked up): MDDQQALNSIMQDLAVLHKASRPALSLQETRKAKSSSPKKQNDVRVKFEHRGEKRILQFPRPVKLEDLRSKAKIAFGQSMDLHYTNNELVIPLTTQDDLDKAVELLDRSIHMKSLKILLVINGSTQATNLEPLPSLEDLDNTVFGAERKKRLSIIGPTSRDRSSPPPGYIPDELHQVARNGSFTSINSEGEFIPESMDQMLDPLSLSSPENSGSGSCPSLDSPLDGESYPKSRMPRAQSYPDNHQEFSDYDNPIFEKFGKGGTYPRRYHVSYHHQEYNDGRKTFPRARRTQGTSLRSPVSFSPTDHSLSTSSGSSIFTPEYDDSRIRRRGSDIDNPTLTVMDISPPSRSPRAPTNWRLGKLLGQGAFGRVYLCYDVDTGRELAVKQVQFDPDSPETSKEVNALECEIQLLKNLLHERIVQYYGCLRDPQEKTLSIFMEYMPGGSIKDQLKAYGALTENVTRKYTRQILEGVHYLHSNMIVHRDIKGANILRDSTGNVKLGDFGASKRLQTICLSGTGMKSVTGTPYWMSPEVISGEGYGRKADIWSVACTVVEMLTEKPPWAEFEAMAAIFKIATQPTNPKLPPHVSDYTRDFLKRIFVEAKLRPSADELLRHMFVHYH

STK35 (human) = STK35 (human) (UniProt Q8TDR2)
[1] = biological target: JAK2 JH1 catalytic (human) (UniProt O60674)
GSK3A (human) = GSK3A (human) (UniProt P49840)
CLK2 (human) = CLK2 (human) (UniProt P49760)
CSNK1E (human) = CSNK1E (human) (UniProt P49674)
IKBKB (human) = IKBKB (human) (UniProt O14920)
LCK (human) = LCK (human) (UniProt P06239)
Sequence of LCK (human) (P06239 whole entry, looked up): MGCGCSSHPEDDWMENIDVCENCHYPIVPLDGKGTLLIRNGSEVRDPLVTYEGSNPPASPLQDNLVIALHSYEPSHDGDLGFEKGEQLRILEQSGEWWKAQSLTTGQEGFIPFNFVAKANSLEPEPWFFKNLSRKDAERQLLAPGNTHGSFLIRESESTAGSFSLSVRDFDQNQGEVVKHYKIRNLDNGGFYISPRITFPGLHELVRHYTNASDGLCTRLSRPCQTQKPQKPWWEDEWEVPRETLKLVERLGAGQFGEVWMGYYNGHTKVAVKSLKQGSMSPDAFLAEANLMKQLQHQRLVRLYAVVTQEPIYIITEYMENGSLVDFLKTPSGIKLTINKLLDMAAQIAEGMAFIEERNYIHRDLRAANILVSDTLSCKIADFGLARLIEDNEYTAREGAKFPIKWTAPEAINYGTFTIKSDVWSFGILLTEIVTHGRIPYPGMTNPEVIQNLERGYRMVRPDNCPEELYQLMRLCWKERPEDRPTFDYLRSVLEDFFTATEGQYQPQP

FLT4 (human) = FLT4 (human) (UniProt P35916)
ACVR2B (human) = ACVR2B (human) (UniProt Q13705)
MAP3K15 (human) = MAP3K15 (human) (UniProt Q6ZN16)
GRK4 (human) = GRK4 (human) (UniProt P32298)
[2] = test system: PIK3CA (human), P42336 [E542K]
MYO3B (human) = MYO3B (human) (UniProt Q8WXR4)
PHKG2 (human) = PHKG2 (human) (UniProt P15735)
SRPK2 (human) = SRPK2 (human) (UniProt P78362)
[3] = test system: FLT3 (human), P36888 [D835H]
CAMK4 (human) = CAMK4 (human) (UniProt Q16566)
MKNK2 (human) = MKNK2 (human) (UniProt Q9HBH9)
MAP3K12 (human) = MAP3K12 (human) (UniProt Q12852)
Sequence of MAP3K12 (human) (Q12852 whole entry, looked up): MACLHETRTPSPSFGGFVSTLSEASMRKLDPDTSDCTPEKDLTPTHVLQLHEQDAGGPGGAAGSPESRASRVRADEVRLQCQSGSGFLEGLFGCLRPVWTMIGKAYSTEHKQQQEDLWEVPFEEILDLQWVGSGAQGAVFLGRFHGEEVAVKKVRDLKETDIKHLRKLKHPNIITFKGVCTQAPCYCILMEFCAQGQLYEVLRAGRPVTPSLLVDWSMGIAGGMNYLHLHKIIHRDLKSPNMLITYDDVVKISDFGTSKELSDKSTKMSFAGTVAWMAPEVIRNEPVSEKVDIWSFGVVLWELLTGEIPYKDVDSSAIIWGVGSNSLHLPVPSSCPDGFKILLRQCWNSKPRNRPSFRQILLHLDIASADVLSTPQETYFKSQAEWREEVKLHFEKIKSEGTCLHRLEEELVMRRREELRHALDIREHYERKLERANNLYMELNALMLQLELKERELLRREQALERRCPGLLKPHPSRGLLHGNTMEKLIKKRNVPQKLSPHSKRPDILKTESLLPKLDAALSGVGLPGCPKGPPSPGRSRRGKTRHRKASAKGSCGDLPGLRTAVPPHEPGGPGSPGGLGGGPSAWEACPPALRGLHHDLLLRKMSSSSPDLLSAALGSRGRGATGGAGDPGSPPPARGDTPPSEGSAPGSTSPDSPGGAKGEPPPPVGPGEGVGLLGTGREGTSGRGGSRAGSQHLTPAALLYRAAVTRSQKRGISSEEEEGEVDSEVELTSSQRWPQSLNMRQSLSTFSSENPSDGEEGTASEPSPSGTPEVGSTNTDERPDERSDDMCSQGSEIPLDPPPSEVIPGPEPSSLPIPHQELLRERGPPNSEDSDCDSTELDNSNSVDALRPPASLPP

PIP5K1C (human) = PIP5K1C (human) (UniProt O60331)
Sequence of PIP5K1C (human) (O60331 whole entry, looked up): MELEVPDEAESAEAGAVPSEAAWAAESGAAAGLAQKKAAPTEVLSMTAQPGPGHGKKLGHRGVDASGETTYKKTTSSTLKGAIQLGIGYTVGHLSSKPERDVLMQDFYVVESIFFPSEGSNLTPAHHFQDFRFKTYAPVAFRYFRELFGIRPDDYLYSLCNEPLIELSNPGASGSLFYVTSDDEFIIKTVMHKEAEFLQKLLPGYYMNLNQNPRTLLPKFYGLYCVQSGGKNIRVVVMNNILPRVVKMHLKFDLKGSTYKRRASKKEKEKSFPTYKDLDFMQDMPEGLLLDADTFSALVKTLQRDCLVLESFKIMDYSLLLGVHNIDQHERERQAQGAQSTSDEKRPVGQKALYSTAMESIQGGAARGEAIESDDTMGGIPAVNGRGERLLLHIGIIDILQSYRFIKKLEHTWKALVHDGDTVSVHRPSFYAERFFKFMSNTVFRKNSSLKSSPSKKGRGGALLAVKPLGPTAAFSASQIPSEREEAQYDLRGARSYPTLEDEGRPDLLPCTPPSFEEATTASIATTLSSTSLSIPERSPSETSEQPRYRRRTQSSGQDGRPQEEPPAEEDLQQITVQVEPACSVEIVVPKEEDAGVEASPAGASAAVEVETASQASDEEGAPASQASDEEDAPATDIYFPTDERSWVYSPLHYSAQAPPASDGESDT

NEK9 (human) = NEK9 (human) (UniProt Q8TD19)
MARK4 (human) = MARK4 (human) (UniProt Q96L34)
[4] = test system: EGFR (human), P00533 [A750P; 747-749 del]
PRKG1 (human) = PRKG1 (human) (UniProt Q13976)
KDR (human) = KDR (human) (UniProt P35968)
EPHA3 (human) = EPHA3 (human) (UniProt P29320)
[5] = test system: EGFR (human), P00533 [T790M/L858R]
PRKACA (human) = PRKACA (human) (UniProt P17612)
MAP2K6 (human) = MAP2K6 (human) (UniProt P52564)
NEK1 (human) = NEK1 (human) (UniProt Q96PY6)
RIOK1 (human) = RIOK1 (human) (UniProt Q9BRS2)
Sequence of RIOK1 (human) (Q9BRS2 whole entry, looked up): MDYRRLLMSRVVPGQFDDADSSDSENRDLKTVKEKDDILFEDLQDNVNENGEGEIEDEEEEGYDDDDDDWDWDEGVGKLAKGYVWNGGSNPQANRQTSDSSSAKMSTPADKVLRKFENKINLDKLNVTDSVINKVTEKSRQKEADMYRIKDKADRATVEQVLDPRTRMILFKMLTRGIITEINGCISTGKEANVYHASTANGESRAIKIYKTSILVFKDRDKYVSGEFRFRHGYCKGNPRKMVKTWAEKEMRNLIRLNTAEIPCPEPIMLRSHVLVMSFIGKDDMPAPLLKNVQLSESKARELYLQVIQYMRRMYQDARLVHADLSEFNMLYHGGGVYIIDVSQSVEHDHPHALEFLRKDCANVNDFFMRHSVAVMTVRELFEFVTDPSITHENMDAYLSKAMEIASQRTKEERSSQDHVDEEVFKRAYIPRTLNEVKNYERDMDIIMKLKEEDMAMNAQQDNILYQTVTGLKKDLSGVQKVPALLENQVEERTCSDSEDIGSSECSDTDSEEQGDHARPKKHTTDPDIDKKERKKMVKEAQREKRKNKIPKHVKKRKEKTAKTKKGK

[6] = test system: FLT3 (human), P36888 [K663Q]
OXSR1 (human) = OXSR1 (human) (UniProt O95747)
STK16 (human) = STK16 (human) (UniProt O75716)
CHEK1 (human) = CHEK1 (human) (UniProt O14757)

Sequence of ERN1 (human) (O75460 whole entry, looked up): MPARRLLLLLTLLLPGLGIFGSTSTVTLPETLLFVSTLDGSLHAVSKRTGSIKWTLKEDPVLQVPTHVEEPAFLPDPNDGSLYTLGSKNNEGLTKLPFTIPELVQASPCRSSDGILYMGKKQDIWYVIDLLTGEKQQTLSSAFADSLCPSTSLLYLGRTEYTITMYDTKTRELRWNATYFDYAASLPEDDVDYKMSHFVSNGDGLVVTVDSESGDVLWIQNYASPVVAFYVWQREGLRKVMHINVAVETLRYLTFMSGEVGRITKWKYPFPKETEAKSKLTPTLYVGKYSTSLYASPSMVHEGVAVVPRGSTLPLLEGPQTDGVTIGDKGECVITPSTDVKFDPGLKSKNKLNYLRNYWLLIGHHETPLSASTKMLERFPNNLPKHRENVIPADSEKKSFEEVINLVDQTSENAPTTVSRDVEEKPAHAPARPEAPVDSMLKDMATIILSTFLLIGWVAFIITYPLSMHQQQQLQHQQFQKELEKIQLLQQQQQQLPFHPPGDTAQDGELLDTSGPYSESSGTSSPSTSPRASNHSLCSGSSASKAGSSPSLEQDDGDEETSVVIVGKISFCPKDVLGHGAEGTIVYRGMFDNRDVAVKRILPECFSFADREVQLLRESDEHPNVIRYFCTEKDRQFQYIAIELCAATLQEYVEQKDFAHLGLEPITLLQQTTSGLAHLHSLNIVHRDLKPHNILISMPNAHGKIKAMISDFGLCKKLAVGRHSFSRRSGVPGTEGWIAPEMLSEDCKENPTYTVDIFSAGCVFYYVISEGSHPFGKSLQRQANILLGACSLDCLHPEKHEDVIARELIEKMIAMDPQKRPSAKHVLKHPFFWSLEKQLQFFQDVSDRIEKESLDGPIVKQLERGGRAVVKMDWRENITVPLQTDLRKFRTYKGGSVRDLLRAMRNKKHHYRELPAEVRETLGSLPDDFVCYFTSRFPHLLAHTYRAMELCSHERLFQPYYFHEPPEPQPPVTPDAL
Sequence of MUSK (human) (O15146 whole entry, looked up): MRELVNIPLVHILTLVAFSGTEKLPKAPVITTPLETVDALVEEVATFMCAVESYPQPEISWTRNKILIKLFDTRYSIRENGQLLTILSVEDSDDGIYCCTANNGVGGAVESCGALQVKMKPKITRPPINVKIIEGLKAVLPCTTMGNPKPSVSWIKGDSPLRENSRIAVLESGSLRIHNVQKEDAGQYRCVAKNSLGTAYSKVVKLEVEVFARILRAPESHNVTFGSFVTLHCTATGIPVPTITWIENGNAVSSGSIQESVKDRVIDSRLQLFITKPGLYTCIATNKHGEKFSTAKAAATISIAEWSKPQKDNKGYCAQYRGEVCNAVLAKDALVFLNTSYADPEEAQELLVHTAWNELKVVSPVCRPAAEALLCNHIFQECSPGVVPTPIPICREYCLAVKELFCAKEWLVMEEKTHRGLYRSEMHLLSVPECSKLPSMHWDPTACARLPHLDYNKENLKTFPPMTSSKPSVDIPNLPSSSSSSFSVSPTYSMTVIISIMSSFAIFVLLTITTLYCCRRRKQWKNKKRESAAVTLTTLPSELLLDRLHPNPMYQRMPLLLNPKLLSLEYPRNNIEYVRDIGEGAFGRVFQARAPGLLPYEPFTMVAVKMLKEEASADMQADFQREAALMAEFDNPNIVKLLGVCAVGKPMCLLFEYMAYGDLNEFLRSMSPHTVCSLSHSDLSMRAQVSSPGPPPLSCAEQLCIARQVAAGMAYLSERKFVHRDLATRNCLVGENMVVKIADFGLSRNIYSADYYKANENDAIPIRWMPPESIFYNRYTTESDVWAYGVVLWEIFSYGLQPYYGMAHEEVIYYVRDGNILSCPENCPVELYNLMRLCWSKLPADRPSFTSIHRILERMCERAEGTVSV

SMILES: N#Cc1ccc2ncnc(NCCc3ccc4ccccc4c3)c2c1
- kinase still bound, per cent of control (BMP2K (human)): 68%
- kinase still bound, per cent of control (ERN1 (human)): 100%
- kinase still bound, per cent of control (IGF1R (human)): 100%
- kinase still bound, per cent of control (FLT3 (human)): 79%
- kinase still bound, per cent of control (MUSK (human)): 100%
- kinase still bound, per cent of control (HIPK3 (human)): 78%
- kinase still bound, per cent of control (TTK (human)): 75%
- kinase still bound, per cent of control (MAP3K2 (human)): 80%
- kinase still bound, per cent of control (STK35 (human)): 100%
- kinase still bound, per cent of control [1]: 100%
- kinase still bound, per cent of control (GSK3A (human)): 100%
- kinase still bound, per cent of control (CLK2 (human)): 74%
- kinase still bound, per cent of control (CSNK1E (human)): 100%
- kinase still bound, per cent of control (IKBKB (human)): 100%
- kinase still bound, per cent of control (LCK (human)): 84%
- kinase still bound, per cent of control (FLT4 (human)): 100%
- kinase still bound, per cent of control (ACVR2B (human)): 89%
- kinase still bound, per cent of control (MAP3K15 (human)): 91%
- kinase still bound, per cent of control (GRK4 (human)): 89%
- kinase still bound, per cent of control [2]: 84%
- kinase still bound, per cent of control (MYO3B (human)): 96%
- kinase still bound, per cent of control (PHKG2 (human)): 100%
- kinase still bound, per cent of control (SRPK2 (human)): 100%
- kinase still bound, per cent of control [3]: 98%
- kinase still bound, per cent of control (CAMK4 (human)): 100%
- kinase still bound, per cent of control (MKNK2 (human)): 98%
- kinase still bound, per cent of control (MAP3K12 (human)): 100%
- kinase still bound, per cent of control (PIP5K1C (human)): 100%
- kinase still bound, per cent of control (NEK9 (human)): 100%
- kinase still bound, per cent of control (MARK4 (human)): 85%
- kinase still bound, per cent of control [4]: 83%
- kinase still bound, per cent of control (PRKG1 (human)): 85%
- kinase still bound, per cent of control (KDR (human)): 86%
- kinase still bound, per cent of control (EPHA3 (human)): 91%
- kinase still bound, per cent of control [5]: 100%
- kinase still bound, per cent of control (PRKACA (human)): 100%
- kinase still bound, per cent of control (MAP2K6 (human)): 100%
- kinase still bound, per cent of control (NEK1 (human)): 100%
- kinase still bound, per cent of control (RIOK1 (human)): 71%
- kinase still bound, per cent of control [6]: 98%
- kinase still bound, per cent of control (OXSR1 (human)): 100%
- kinase still bound, per cent of control (STK16 (human)): 51%
- kinase still bound, per cent of control (CHEK1 (human)): 97%
